In brackets after ≈: the same amount, converted by molar mass.
Experiments:
[1] = test system: Panel (Carcinoma cell lines); experiment: Inhibitory activity against human cancer cell line growth was determined; assay type: functional
[2] = test system: Panel (Carcinoma cell lines); experiment: Effective dose for human cancer cell line growth inhibition was determined; assay type: functional; conditions: read-out: ED50 (the source's name)

GI50 [1] | EC50 [2] | Compound
1 nM | – | C[C@@H]1[C@]2(O[C@H]3C=C4[C@@H]5CC[C@H]6Cc7nc8c(nc7C[C@]6(C)[C@H]5C[C@@H](O)[C@]4(C)[C@]31O)C[C@@H]1CC[C@H]3C4=CC[C@@H]5[C@H](C)[C@@]6(OC[C@]45C(=O)C[C@@H]3[C@@]1(C)C8)OC(C)(C)C[C@H]6O)O[C@](C)(CO)C[C@H]2O [CEPHALOSTATIN 1]
400 nM | 0.072 µg/mL (≈ 0.0762 µM) | C[C@@H]1[C@]2(O[C@H]3C=C4[C@@H]5CC[C@H]6Cc7nc8c(nc7C[C@]6(C)[C@H]5C[C@@H](O)[C@]4(C)[C@]31O)C[C@@H]1CC[C@H]3C4=C[C@@H]5O[C@]6(O[C@](C)(CO)C[C@H]6O)[C@@H](C)[C@]5(O)[C@@]4(C)[C@H](O)C[C@@H]3[C@@]1(C)C8)O[C@](C)(CO)C[C@H]2O [CEPHALOSTATIN 12]
> 1000 nM | 0.046 µg/mL (≈ 0.0479 µM) | C[C@@H]1[C@]2(O[C@H]3C=C4[C@@H]5CC[C@H]6Cc7nc8c(nc7C[C@]6(C)[C@H]5C[C@@H](O)[C@]4(C)[C@]31O)C[C@@H]1CC[C@H]3C4=C[C@@H]5O[C@]6(O[C@](C)(CO)C[C@H]6O)[C@@H](C)[C@]5(O)[C@@]4(C)[C@H](O)C[C@@H]3[C@@]1(C)[C@H]8O)O[C@](C)(CO)C[C@H]2O [CEPHALOSTATIN 13]
